Data reported in US11801232B2, “Targeting of ARID1A-deficient cancers by inhibiting de novo pyrimidine synthesis pathway” (YALE UNIVERSITY, priority 2019, dated 2023).

What was measured:
[1] = tested on: ES2 ARID1A-knockdown cells (shARID1A); experiment: Cell growth after 72 h drug treatment, ARID1A-knockdown versus control cells; format: cell-based, human; conditions: 72 h treatment; compared to untransfected or shCon ES2 cells
Procedure: Short Hairpin RNA (shRNA)-Mediated Knockdown and Expression of ARID1A in ovarian and endometrial carcinoma cells. shRNA lentiviral supernatants were produced using standard protocols, as previously described^8. Vectors were transfected into HEK293FT cells using X-tremeGENE 9 DNA Transfection Reagent (from Roche). Retroviral supernatants isolated at 48 h were diluted 1:1 in culture medium and used to infect ARID1A-wildtype ES2 and KLE cell lines. Stably transfected subclones were expanded using puromycin (from Dot Scientific) drug selection. For expression of ARID1A in the ARID1A-mutant HEC-1-A cell line, pCIN4-HA-ARID1A was transfected using X-tremeGENE 9 DNA Transfection Reagent (from Roche), followed by selection with G418 (from Gibco). For expression of ARID1A in the ARID1A-mutant SKOV3 and OVISE cell lines, V5/His-tagged pLenti-puro-LacZ and pLenti-puro-ARID1A were transfected using lentivirus. […]
(§1) Cytotoxicity assay. […] Cell number was determined using a sulforhodamine B (SRB) assay, as previously described^23. […] After washing, protein-bound dye was solubilized with 10 mM unbuffered Tris-base solution (pH 10.5) and detected at 510 nm using a microplate reader. Percentage of cell-growth was calculated using the following formula: % cell growth=[(Absorbance sample)/(Absorbance untreated)]×100 […]

ES2 cells = experiment: Cytotoxicity (SRB) assay with CalcuSyn combination analysis; format: cell-based; conditions: Homo sapiens, ES-2, Table 2; ES2 parental; VX970 alone; read-out: Dm
Procedure: Cytotoxicity assay. Cells were seeded in 96-well plates, with 2000 cells in 100 μL/well, and cultured for 24 h. The cells were treated with serial dilutions of drugs or without drug for an additional 72 h. Cell number was determined using a sulforhodamine B (SRB) assay, as previously described^23. Briefly, cells were fixed with 20% trichloroacetic acid (TCA), air-dried, and stained with 0.4% SRB dissolved in 1% acetic acid. After washing, protein-bound dye was solubilized with 10 mM unbuffered Tris-base solution (pH 10.5) and detected at 510 nm using a microplate reader. Percentage of cell-growth was calculated using the following formula: % cell growth=[(Absorbance sample)/(Absorbance untreated)]×100 […] Datasets from at least three independent experiments were combined, and each table cell contains the mean value±SD. SCR, ES2-shScrambled. N/A, not applicable. Statistical analysis was carried out by one-way ANOVA with Bonferroni's post-hoc test, and differences were considered significant at **P<0.01 and ***P<0.001 as compared to the ES2 parental group with the same drug treatment. […] CIwt value was calculated using the formula: […] Datasets from at least three independent experiments were combined, and each table cell contains the mean value±SD. Teri, teriflunomide. SCR, ES2-shScrambled. N/A, not applicable. Statistical analysis was carried out by one-way ANOVA with Bonferroni's post-hoc test, and differences were considered significant at ***P<0.001 as compared to the ES2 parental group with the same drug treatment.

[2] = tested on: ARID1A-knockout HCT116 cells; experiment: Cell growth after 72 h drug treatment, ARID1A-knockout versus wild-type cells; format: cell-based, human; conditions: 72 h treatment; compared to ARID1A wild-type HCT116 control cells
Procedure: Cell Lines. Adherent cell lines were cultured in RPMI 1640 (from Gibco) supplemented with 10% fetal bovine serum (from Gibco) and 1% penicillin-streptomycin (from Gibco) at 37° C., 5% CO2. Low-passage-number cells were used, and all cell lines tested negative for mycoplasma using the MycoAlert Mycoplasma Detection Kit (from Lonza). The following ovarian and endometrial cancer cell lines were used: ES26, KLE5, SKOV3, OVISE (from JCRB Cell Bank), and HEC-1-A5 cells and their stably transfected subclones, as described below. Cell lines were authenticated using the GenePrint10 kit (form Promega) and matching to their original profiles (at ATCC). ARID1A protein expression status was confirmed by immunoblotting. HEK293FT cells were from Thermo Fisher Scientific. ARID1A-knockout HCT116 (homozygous truncating mutations, Q456*/Q456*) and ARID1A-wildtype HCT116 colorectal carcinoma cells were from Horizon Discovery.
as §1, with “assay. Cells were seeded in 96-well plates, with 2000 cells in 100 μL/well, and cultured for 24 h.” for “assay.”

γ-H2AX = experiment: Immunoblot and immunofluorescence of γ-H2AX in ES2 cells; format: cell-based, human; conditions: ARID1A-knockdown ES2 cells; teriflunomide 15 μM, AZD6738 1.5 μM, VX-970 0.075 μM; 24-72 h
Procedure: Immunoblot Analysis and Co-Immunoprecipitation Assay. For immunoblotting experiments, cells were lysed in BC200 lysis buffer [20 mM Tris-HCl (pH 7.5), 200 mM NaCl, 1 mM EDTA, 0.2% Nonidet P-40 (NP-40), freshly added complete protease inhibitor cocktail (from Roche), and PhosSTOP phosphatase inhibitor (from Roche)] or in boiling SDS lysis buffer [1% SDS and 10 mM Tris-CI (pH 7.5)], as previously described^21. Protein concentrations were quantified using a modified Lowry assay, and equal protein amounts were loaded onto a 10% SDS-PAGE gel and separated by gel electrophoresis, followed by transfer to a nitrocellulose membrane. The nitrocellulose membrane was stained with Ponceau S to confirm equal protein loading and then blocked in 2% BSA in Tris-buffered saline with 0.1% Tween-20 (tris buffered saline with tween, or TBST). Primary antibody incubation was done for 2 h at room temperature or, for phospho-specific antibodies, overnight at 4° C. An HRP-conjugated secondary antibody was used, followed by detection using enhanced chemiluminescence substrate (from Pierce). Autoradiograph images were scanned and saved as unmodified TIFF images, and densitometry analysis was done with ImageJ (from NIH) software.
Immunofluorescence. […] Images of cells were acquired using a BZ-X710 fluorescence microscope (from KEYENCE) and analyzed using ImageJ (from NIH).

ES2 shARID1A (a) cells = experiment: Cytotoxicity (SRB) assay with CalcuSyn combination analysis; format: cell-based; conditions: Homo sapiens, Table 2, VX970 alone, read-out: Dm
Procedure: (§2) Short Hairpin RNA (shRNA)-Mediated Knockdown and Expression of ARID1A in ovarian and endometrial carcinoma cells. shRNA lentiviral supernatants were produced using standard protocols, as previously described^8. Vectors were transfected into HEK293FT cells using X-tremeGENE 9 DNA Transfection Reagent (from Roche). Retroviral supernatants isolated at 48 h were diluted 1:1 in culture medium and used to infect ARID1A-wildtype ES2 and KLE cell lines. Stably transfected subclones were expanded using puromycin (from Dot Scientific) drug selection. For expression of ARID1A in the ARID1A-mutant HEC-1-A cell line, pCIN4-HA-ARID1A was transfected using X-tremeGENE 9 DNA Transfection Reagent (from Roche), followed by selection with G418 (from Gibco). For expression of ARID1A in the ARID1A-mutant SKOV3 and OVISE cell lines, V5/His-tagged pLenti-puro-LacZ and pLenti-puro-ARID1A were transfected using lentivirus. Lentivirus was produced using HEK293FT cells with the second-generation packaging system pSPAX2 (Addgene plasmid) and pMD2.G (Addgene plasmid). Stably transfected subclones were expanded using puromycin and blasticidin (Gibco) drug selection.
(§3) Cytotoxicity assay. Cells were seeded in 96-well plates, with 2000 cells in 100 μL/well, and cultured for 24 h. The cells were treated with serial dilutions of drugs or without drug for an additional 72 h. Cell number was determined using a sulforhodamine B (SRB) assay, as previously described^23. Briefly, cells were fixed with 20% trichloroacetic acid (TCA), air-dried, and stained with 0.4% SRB dissolved in 1% acetic acid. After washing, protein-bound dye was solubilized with 10 mM unbuffered Tris-base solution (pH 10.5) and detected at 510 nm using a microplate reader. Percentage of cell-growth was calculated using the following formula: % cell growth=[(Absorbance sample)/(Absorbance untreated)]×100
(§4) Using CalcuSyn software (Biosoft), dose-effect curves were generated, and drug concentrations corresponding to a 50% decrease in cell number (IC50) were determined.
(§5) Drug concentrations corresponding to a median effect (Dm) are shown for each treatment; teriflunomide concentration is shown for combination (Combo) treatment at a 10:1 fixed molar ratio of two drugs, teriflunomide and AZD6738. […] Datasets from at least three independent experiments were combined, and each table cell contains the mean value±SD. SCR, ES2-shScrambled. N/A, not applicable. Statistical analysis was carried out by one-way ANOVA with Bonferroni's post-hoc test, and differences were considered significant at **P<0.01 and ***P<0.001 as compared to the ES2 parental group with the same drug treatment.
(§6) Drug concentrations (in μM for teriflunomide, in nM for […]) corresponding to median effect (Dm) are shown for each treatment; teriflunomide concentration is shown for combination (Combo) treatment at a 200:1 fixed molar ratio of the two drugs, teriflunomide and VX-970. […] CIwt<0.8, =0.8 to 1.2, and >1.2 indicates synergism, an additive effect, and antagonism, respectively. CIwt value was calculated using the formula: CIwt=(ED50+2ED75+3ED90)/6. Datasets from at least three independent experiments were combined, and each table cell contains the mean value±SD. Teri, teriflunomide. SCR, ES2-shScrambled. N/A, not applicable. Statistical analysis was carried out by one-way ANOVA with Bonferroni's post-hoc test, and differences were considered significant at ***P<0.001 as compared to the ES2 parental group with the same drug treatment.

ES2 shARID1A (b) cells = experiment: as above; format: cell-based; conditions: Homo sapiens, Table 2, VX970 alone, read-out: Dm
Procedure: as §2, §3, §4, §5, §6

[3] = tested on: ES2-shScrambled (SCR) cells; experiment: as above; format: cell-based; conditions: Homo sapiens, Table 2, VX970 alone, read-out: Dm
Procedure: as §2, §3, §4, §5, §6

SMILES: CCc1cncnc1N1CCN(Cc2nc3ccc(C(F)(F)F)cc3[nH]2)CC1 [PF-4708671]
- Drug sensitivity of ARID1A-knockdown ES2 cells [1]: significantly hypersensitive

SMILES: CNCc1ccc(-c2cc(-c3nc(-c4ccc(S(=O)(=O)C(C)C)cc4)cnc3N)on2)cc1 [VX-970]
- IC50 (ES2 cells): 165 ± 3.84 nM
- Drug sensitivity of ARID1A-knockout HCT116 cells [2]: more sensitive
- γ-H2AX protein levels (γ-H2AX): increased
- IC50 (ES2 shARID1A (a) cells): 54.3 ± 1.31 nM
- IC50 (ES2 shARID1A (b) cells): 63.3 ± 10.4 nM
- IC50 [3]: 170 ± 9.24 nM
